According to the supplement of paper PMC8671470:

Tests used:
Experiment in all cases: area under dose-response curve (viability, 1 nM-10 uM) (fraction (0-1)); higher = more sensitive
Details in all cases: 72 h
[1] = test system: myeloid leukemia patient primary cells Pat.12
Procedure: (§1)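 AUC (0–1, higher = more sensitive) of the 5-point dose–response (1 nM–10 µM, 72 h, CellTiter-Glo) in primary AML/CML patient mononuclear cells. 0.030103 is the floor for inactive compounds.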

[2] = test system: myeloid leukemia patient primary cells Pat.2
Procedure: as §1

[3] = test system: myeloid leukemia patient primary cells Pat.5
Procedure: as §1

[4] = test system: myeloid leukemia patient primary cells Pat.7
Procedure: as §1

[5] = test system: myeloid leukemia patient primary cells Pat.9
Procedure: as §1

| SMILES | area under dose-response curve [1] | area under dose-response curve [2] | area under dose-response curve [3] | area under dose-response curve [4] | area under dose-response curve [5] |
| --- | --- | --- | --- | --- | --- |
| Sc1ncnc2nc[nH]c12 [6-mercaptopurine] | < 0.0301 | < 0.0301 | 0.588 | < 0.0301 | 0.0529 |
| Cc1noc2c1-c1ccccc1C(c1ccc(Cl)cc1)=N[C@H]2CC(N)=O [CPI-0610] |  | 0.192 | 0.74 | 0.0768 | 0.34 |
| Nc1ccn([C@@H]2O[C@H](CO)[C@@H](O)[C@@H]2O)c(=O)n1 [Cytarabine] | 0.0325 | 0.077 | 0.85 | 0.418 | 0.719 |
| CCN(CC)CCN(Cc1ccc(-c2ccc(C(F)(F)F)cc2)cc1)C(=O)Cn1c(SCc2ccc(F)cc2)nc(=O)c2c1CCC2 [Darapladib] | 0.134 | 0.143 | 0.947 | 0.502 | 0.625 |
| CC12CCC(O)CC1CCC1C2CCC2(C)C(C3=CC(=O)OC3)CCC12O (stereo unspecified) [Digitoxigenin] | 0.208 | 0.27 | 0.713 | < 0.0301 | 0.658 |
| C[C@H]1O[C@@H](O[C@H]2[C@@H](O)C[C@H](O[C@H]3[C@@H](O)C[C@H](O[C@H]4CC[C@@]5(C)[C@H](CC[C@@H]6[C@@H]5C[C@@H](O)[C@]5(C)[C@@H](C7=CC(=O)OC7)CC[C@]65O)C4)O[C@@H]3C)O[C@@H]2C)C[C@H](O)[C@@H]1O [Digoxin] | 0.275 | 0.346 | 0.611 | < 0.0301 | 0.609 |
| Clc1ccc(COC(Cn2ccnc2)c2ccc(Cl)cc2Cl)cc1 (stereo unspecified) [Econazole] | < 0.0301 | < 0.0301 | 0.499 | 0.202 | 0.439 |
| C[C@]12O[C@H](C[C@]1(O)CO)n1c3ccccc3c3c4c(c5c6ccccc6n2c5c31)CNC4=O [Lestaurtinib] | 0.125 | 0.232 | 0.929 | 0.191 | 0.813 |
| CC(Cc1ccc(O)c(O)c1)C(C)Cc1ccc(O)c(O)c1 (stereo unspecified) [Masoprocol] | 0.0847 |  | < 0.0301 | 0.294 | 0.3 |
| COc1c(C)c2c(c(O)c1C/C=C(\C)CCC(=O)O)C(=O)OC2 [Mycophenolic acid] | < 0.0301 | < 0.0301 | < 0.0301 | < 0.0301 |  |
| CCOC(=O)N1c2ccc(C(F)(F)F)cc2[C@@H](N(Cc2cc(C(F)(F)F)cc(C(F)(F)F)c2)C(=O)OC)C[C@H]1CC [Torcetrapib] | < 0.0301 | < 0.0301 |  | 0.197 | 0.239 |
